Assay results published in EP0988300B1, “BENZO(5,6)CYCLOHEPTA(1,2-B)PYRIDINE DERIVATIVES FOR THE INHIBITION OF FARNESYL PROTEIN TRANSFERASE” (SCHERING CORPORATION, priority 1997, dated 1998).

Tests used:
Human tumor cells = test: Soft Agar Assay (anchorage-independent growth, colony count after MTT staining); format: cell-based
Description: Anchorage-independent growth is a characteristic of tumorigenic cell lines. Human tumor cells can be suspended in growth medium containing 0.3% agarose and an indicated concentration of a farnesyl transferase inhibitor. The solution can be overlayed onto growth medium solidified with 0.6% agarose containing the same concentration of farnesyl transferase inhibitor as the top layer. After the top layer is solidified, plates can be incubated for 10-16 days at 37°C under 5% CO2 to allow colony outgrowth. After incubation, the colonies can be stained by overlaying the agar with a solution of MTT (3-[4,5-dimethyl-thiazol-2-yl]-2,5-diphenyltetrazolium bromide, Thiazolyl blue) (1 mg/mL in PBS). Colonies can be counted and the IC50's can be determined.

COS Cell = COS Cell IC50 (Cell-Based Assay), procedures of WO 95/10516
Description: FPT IC50 (inhibition of farnesyl protein transferase, in vitro enzyme assay) was determined following the assay procedures described in WO 95/10516, published April 20, 1995. GGPT IC50 (inhibition of geranylgeranyl protein transferase, in vitro enzyme assay), COS Cell IC50 (Cell-Based Assay), Cell Mat Assay, and anti-tumor activity (in vivo anti-tumor studies) could be determined by the assay procedures described in WO 95/10516. The disclosure of WO 95/10516 is incorporated herein by reference thereto.

human FPT = molecular target: T1, human FPT (Homo sapiens, UniProt P49354+P49356); test: FPT pM IC50 Assay (scintillation proximity assay, biotin-CVLS and (1-3H)-FPP substrates); format: biochemical; settings: 30 pM human FPT, 176 nM FPP, 100 nM biotin-CVLS, 37° C for 1 hour
T1 construct: made in house; host or cells: Baculovirus/Sf-9 insect cells
Description: The enzymatic reaction is performed in 50 mM Tris, 5 µM ZnCl2, 5 mM MgCl2, 0.01 % Triton X-100, 5 mM dithiolthreitol (DTT), pH 7.7 (Buffer R) at 37° C for 1 hour. The purified human FPT (> 95 % pure) was derived from a Baculovirus/Sf-9 expression system. The peptide substrate used was biotin-CVLS (SynPep Corp., Dublin, CA) and (1-^3H)-FPP (21.5 Ci/mmol) was obtained from New England Nuclear Life Science Products (Boston, MA). Compounds were initially dissolved to a final concentration of 4 mg/ml in 100 % DMSO and then to 0.25 µg/ml in 100 % DMSO. Subsequent dilutions of the compound were performed in Buffer R.
The enzymatic reaction is performed in a final volume of 100 µl. Reactions are carried out in a 96 well plate format. […] The reaction is stopped using 150 µl of the Stop Solution consisting of 1.3 mg/ml scintillation beads (strepavidin-coated scintillation proximity beads from. Amersham (Arlington Heights, IL), 250 mM EDTA, pH 8.0 and 0.5 % BSA. The radioactivity is measured after 20 minutes at room temperature.
Compounds are evaluated for their ability to inhibit the reaction by measuring the concentration-dependent percent inhibition of the reaction. […] The enzymatic activity was recorded by measuring the CPM/well using a Wallac 1204 Betaplate BS liquid scintillation counter. […]

Structure (SMILES) | IC50 (Human tumor cells) [nM] | IC50 (COS Cell) [nM] | IC50 (human FPT) [pM]
O=C(Cc1cc[n+]([O-])cc1)N1CCC([C@@H]2c3c(Br)cc(Cl)cc3CCc3cc(Br)c[n+]([O-])c32)CC1 [Example 3] | 25 to 183 | 9 to 85 | 
NC(=O)N1CCC(CC(=O)N2CCC([C@@H]3c4c(Br)cc(Cl)cc4CCc4cc(Br)c[n+]([O-])c43)CC2)CC1 [Example 2] | 25 to 183 | 9 to 85 | 
O=C(Cc1cc[n+]([O-])cc1)N1CCN(C2c3ccc(Cl)cc3CCc3cc(Br)c[n+]([O-])c32)CC1 (centres unmarked) [Example 7] | 25 to 183 | 9 to 85 | 440
NC(=O)N1CCC(CC(=O)N2CCN([C@@H]3c4ccc(Cl)cc4CCc4cc(Br)c[n+]([O-])c43)CC2)CC1 [Example 10] |  |  | 410
